Laboratory results published in US12479974B2, “Composition and method for microbial control for use with polymers” (MICROBAN PRODUCTS COMPANY, priority 2022, dated 2025).
Values after ≈ are worked out from the molar mass of the structure shown.

Key:
[1] = tested on: Escherichia coli (gram-negative bacteria); assay: Antimicrobial efficacy of polymer samples, ISO22196 test method
[2] = tested on: Staphylococcus aureus (gram-positive bacteria); assay: as above; details: GBA alone at more than 4500 ppm in TPU, Table 3 (S. aureus)
Staphylococcus aureus = assay: Minimum inhibitory concentration (MIC); assay type: cell-based; details: against Staphylococcus aureus
Escherichia coli = assay: Minimum inhibitory concentration (MIC); assay type: cell-based; details: against Escherichia coli

Row | MIC (Staphylococcus aureus) [µg/mL] | MIC (Escherichia coli) [µg/mL] | Compound | efficacy against E. coli ([1]; 2500 ppm GBA in TPU) | log reduction ([1]; 4500 ppm GBA alone in TPU, E. coli) | log reduction (consistent antimicrobial efficacy) ([1]; 5250 ppm level in TPU, E. coli) | antimicrobial efficacy [2]
1 |  |  | O=C(O)c1ccccc1 [GBA, benzoic acid] | no efficacy | less than 1 | > 1 | did not exhibit antimicrobial efficacy
2 | 4000 (≈ 29.4 mM) | 3000 to 4000 (≈ 22 to 29.4 mM) | OCCCc1ccccc1 [3-phenylpropanol] |  |  |  | 
